Test results published in patent publication US20140051679A1, “KINASE INHIBITORS AND METHOD OF TREATING CANCER WITH SAME” (UNIVERISTY HEALTH NETWORKS, priority 2011, published 2014).

Assays:
human TTK = molecular target: T1, human TTK (Homo sapiens, UniProt P33981); test: TTK inhibition assay (indirect ELISA); format: biochemical; conditions: GST-TTK 0.68 nM, 16 μM ATP; read-out: IC50 Ranges TTK
T1 construct: amino terminal GST fusion of full length human TTK; purchased Invitrogen
T1 sequence (P33981 1-857): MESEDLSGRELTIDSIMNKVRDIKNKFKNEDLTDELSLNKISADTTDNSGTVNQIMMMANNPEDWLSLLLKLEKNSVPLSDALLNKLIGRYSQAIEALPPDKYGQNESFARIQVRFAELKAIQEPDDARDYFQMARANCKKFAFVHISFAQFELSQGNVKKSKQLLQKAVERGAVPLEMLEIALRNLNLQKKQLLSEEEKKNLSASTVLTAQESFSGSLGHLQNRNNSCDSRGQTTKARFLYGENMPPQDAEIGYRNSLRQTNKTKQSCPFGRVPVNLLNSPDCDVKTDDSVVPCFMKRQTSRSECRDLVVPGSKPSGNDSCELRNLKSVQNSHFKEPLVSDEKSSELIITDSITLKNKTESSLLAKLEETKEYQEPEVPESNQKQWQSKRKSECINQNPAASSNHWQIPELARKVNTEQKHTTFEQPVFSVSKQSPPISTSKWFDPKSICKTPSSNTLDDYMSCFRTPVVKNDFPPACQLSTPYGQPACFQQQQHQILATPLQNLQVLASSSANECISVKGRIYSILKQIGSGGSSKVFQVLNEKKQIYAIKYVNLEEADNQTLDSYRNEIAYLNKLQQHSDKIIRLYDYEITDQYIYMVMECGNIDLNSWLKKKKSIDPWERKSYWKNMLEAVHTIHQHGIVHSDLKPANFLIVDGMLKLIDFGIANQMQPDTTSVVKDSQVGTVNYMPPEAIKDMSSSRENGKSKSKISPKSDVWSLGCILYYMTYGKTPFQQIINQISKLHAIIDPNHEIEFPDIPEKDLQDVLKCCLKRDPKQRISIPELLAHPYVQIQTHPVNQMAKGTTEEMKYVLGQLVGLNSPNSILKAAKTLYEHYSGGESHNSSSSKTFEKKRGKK

human PLK4 = molecular target: T2, human PLK4 (Homo sapiens, UniProt O00444); test: PLK4 inhibition assay (indirect ELISA); format: biochemical; conditions: GST-PLK4 4 nM, 15 μM ATP; read-out: IC50 Ranges PLK4
T2 construct: amino terminal GST fusion of residues 1-391 of human PLK4; made in house; host or cells: E. coli
T2 sequence (O00444 1-391): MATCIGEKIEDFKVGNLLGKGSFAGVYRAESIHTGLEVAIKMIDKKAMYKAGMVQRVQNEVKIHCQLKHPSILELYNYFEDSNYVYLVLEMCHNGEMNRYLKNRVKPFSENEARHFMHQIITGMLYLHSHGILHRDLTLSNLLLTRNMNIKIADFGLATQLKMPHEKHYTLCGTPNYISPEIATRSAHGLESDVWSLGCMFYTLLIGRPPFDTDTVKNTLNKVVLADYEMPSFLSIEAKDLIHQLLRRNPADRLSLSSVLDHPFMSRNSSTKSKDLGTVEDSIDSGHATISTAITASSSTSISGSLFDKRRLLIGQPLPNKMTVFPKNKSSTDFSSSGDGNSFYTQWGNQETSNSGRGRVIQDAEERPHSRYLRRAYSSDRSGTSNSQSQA
Outline: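 Dephosphorylated GST-tagged human PLK4 (residues 1-391, E. coli), 4 nM, preincubated 15 min with compound, then reacted 30 min with 15 μM ATP on MBP-coated plates (50 mM HEPES pH 7.5, 10 mM MgCl2, 0.01% Brij 35). Phospho-MBP detected by antibody ELISA at 450 nm. Tested at 10 μM or 10-point titrations; IC50 from 4-parameter logistic fit.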

Aurora B = molecular target: T3, Aurora B (Homo sapiens, UniProt Q96GD4); test: Aurora B inhibition assay (Z-Lyte); format: biochemical; conditions: 28 nM Aurora B, 128 μM ATP; read-out: IC50 Ranges Aurora B
T3 construct: purchased Invitrogen PV3970
T3 sequence (Q96GD4 whole entry): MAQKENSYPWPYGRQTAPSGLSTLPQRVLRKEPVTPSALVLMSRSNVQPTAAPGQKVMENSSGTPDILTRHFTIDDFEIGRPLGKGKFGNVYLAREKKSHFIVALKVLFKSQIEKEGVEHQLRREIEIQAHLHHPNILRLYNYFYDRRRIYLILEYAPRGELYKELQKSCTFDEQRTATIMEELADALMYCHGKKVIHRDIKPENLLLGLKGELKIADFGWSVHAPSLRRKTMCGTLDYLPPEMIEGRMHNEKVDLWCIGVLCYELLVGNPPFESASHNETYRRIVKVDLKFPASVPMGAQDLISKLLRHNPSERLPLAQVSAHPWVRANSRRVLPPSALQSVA
Method: Aurora B inhibition was determined using the Z-Lyte assay kit from Invitrogen. The assay was performed using the recommended manufacturer's instructions with 128 μM ATP and 28 nM Aurora B (Invitrogen cat #PV3970). The % inhibition values were determined according to the manufacturer's directions and IC50 values were obtained using a non-linear 4 point logistic curve fit (XLfit4, IDBS)

[1] = test system: MDA-MB-468 breast cancer cells; test: Cell growth inhibition, Sulforhodamine B assay, MDA-MB-468; format: cell-based; conditions: Homo sapiens, 120 h, 5 days culture, SRB assay, read-out: Cell Line GI50 Range MDA-MB-468
[2] = test system: HCT116 colon cancer cells; test: Cell growth inhibition, Sulforhodamine B assay, HCT116; format: cell-based; conditions: Homo sapiens, HCT-116, 120 h, 5 days culture, SRB assay, read-out: Cell Line GI50 Range HCT116
HT29 colon cancer cells = test: Cell growth inhibition, Sulforhodamine B assay, HT29; format: cell-based; conditions: Homo sapiens, HT-29, 120 h, 5 days culture, SRB assay, read-out: Cell Line GI50 Range HT29
[3] = test system: PA-1 ovarian cancer cells; test: Cell growth inhibition, Sulforhodamine B assay, PA-1; format: cell-based; conditions: 120 h, 5 days culture, SRB assay, read-out: Cell Line GI50 Range PA-1

O=C(NC(c1ccccc1)C1CC1)c1ccc2[nH]nc(-c3ccc(N[C@H]4CC[C@H](O)CC4)cc3)c2c1 (single isomer, unassigned) [Example A106, rel-N-(cyclopropyl(phenyl)methyl)-3-(4-(((1r,4r)-4-hydroxycyclohexyl)amino)phenyl)-1H-indazole-5-carboxamide]
≤ 5 µM: IC50 (human TTK) | IC50 (human PLK4) | IC50 (Aurora B) | GI50 [1] | GI50 [2] | GI50 (HT29 colon cancer cells) | GI50 [3]

O=C(Nc1ccc2[nH]nc(-c3ccc(N4CCOCC4)cc3)c2c1)C(c1cccs1)N1CCCC1 (stereo not shown) [Example A82, N-(3-(4-morpholinophenyl)-1H-indazol-5-yl)-2-(pyrrolidin-1-yl)-2-(thiophen-2-yl)acetamide]
≤ 5 µM: IC50 (human TTK) | IC50 (human PLK4) | IC50 (Aurora B) | GI50 [1] | GI50 [2] | GI50 (HT29 colon cancer cells) | GI50 [3]

O=C(Nc1ccc2[nH]nc(-c3ccc(N4CCC(O)CC4)cc3)c2c1)C(c1ccsc1)N1CCCCC1 (stereo not shown) [Example A83, N-(3-(4-(4-hydroxypiperidin-1-yl)phenyl)-1H-indazol-5-yl)-2-(piperidin-1-yl)-2-(thiophen-3-yl)acetamide]
≤ 5 µM: IC50 (human TTK) | IC50 (human PLK4) | IC50 (Aurora B) | GI50 [1] | GI50 [2] | GI50 (HT29 colon cancer cells) | GI50 [3]

O=C(NC(c1ccccc1)C1CC1)c1ccc2[nH]nc(-c3ccc(N4CCC(O)CC4)cc3)c2c1 (stereo not shown) [Example A84, N-(cyclopropyl(phenyl)methyl)-3-(4-(4-hydroxypiperidin-1-yl)phenyl)-1H-indazole-5-carboxamide]
≤ 5 µM: IC50 (human TTK) | IC50 (human PLK4) | IC50 (Aurora B) | GI50 [1] | GI50 [2] | GI50 (HT29 colon cancer cells) | GI50 [3]

COC(C(=O)Nc1ccc2[nH]nc(-c3ccc(N4CCC(O)CC4)cc3)c2c1)c1ccsc1 (stereo not shown) [Example A87, N-(3-(4-(4-hydroxypiperidin-1-yl)phenyl)-1H-indazol-5-yl)-2-methoxy-2-(thiophen-3-yl)acetamide]
≤ 5 µM: IC50 (human TTK) | IC50 (human PLK4) | GI50 [1] | GI50 [2] | GI50 (HT29 colon cancer cells) | GI50 [3]

O=C(Nc1ccc2[nH]nc(-c3ccc(N4CCC(O)CC4)cc3)c2c1)C(c1cccs1)N1CCCC1 (stereo not shown) [Example A88, N-(3-(4-(4-hydroxypiperidin-1-yl)phenyl)-1H-indazol-5-yl)-2-(pyrrolidin-1-yl)-2-(thiophen-2-yl)acetamide]
≤ 5 µM: IC50 (human TTK) | IC50 (human PLK4) | IC50 (Aurora B) | GI50 [1] | GI50 [2] | GI50 (HT29 colon cancer cells) | GI50 [3]

O=C(Nc1ccc2[nH]nc(-c3ccc(N4CCC(CO)CC4)cc3)c2c1)C(c1ccsc1)N1CCCC1 (stereo not shown) [Example A95, N-(3-(4-(4-(hydroxymethyl)piperidin-1-yl)phenyl)-1H-indazol-5-yl)-2-(pyrrolidin-1-yl)-2-(thiophen-3-yl)acetamide]
≤ 5 µM: IC50 (human TTK) | IC50 (human PLK4) | IC50 (Aurora B) | GI50 [1] | GI50 [2] | GI50 (HT29 colon cancer cells) | GI50 [3]

C[C@@H]1CCCN1[C@@H](C(=O)Nc1ccc2[nH]nc(-c3ccc(N4CCOCC4)cc3)c2c1)c1ccsc1 [Example A97, (R)-2-((R)-2-methylpyrrolidin-1-yl)-N-(3-(4-morpholinophenyl)-1H-indazol-5-yl)-2-(thiophen-3-yl)acetamide]
≤ 5 µM: IC50 (human TTK) | IC50 (human PLK4) | IC50 (Aurora B) | GI50 [1] | GI50 [2] | GI50 (HT29 colon cancer cells) | GI50 [3]

O=C(NC(c1ccccc1)C1CC1)c1ccc2[nH]nc(-c3ccc(OC4CCN(CCF)CC4)cc3)c2c1 (stereo not shown) [Example A122, N-(cyclopropyl(phenyl)methyl)-3-(4-((1-(2-fluoroethyl)piperidin-4-yl)oxy)phenyl)-1H-indazole-5-carboxamide]
≤ 5 µM: IC50 (human TTK) | IC50 (human PLK4) | GI50 [1] | GI50 [2] | GI50 (HT29 colon cancer cells) | GI50 [3]

O=C(N[C@H](c1ccccn1)C1CC1)c1ccc2[nH]nc(-c3ccc(OC4CCN(C5COC5)CC4)cc3)c2c1 [Example A197, (S)—N-(cyclopropyl(pyridin-2-yl)methyl)-3-(4-((1-(oxetan-3-yl)piperidin-4-yl)oxy)phenyl)-1H-indazole-5-carboxamide]
≤ 5 µM: IC50 (human TTK) | IC50 (human PLK4) | IC50 (Aurora B) | GI50 [1] | GI50 [2] | GI50 [3]

O=C(Nc1ccc2[nH]nc(-c3ccc(N4CCC(O)CC4)cc3)c2c1)C(c1ccsc1)N1CCC1 (stereo not shown) [Example A200, 2-(azetidin-1-yl)-N-(3-(4-(4-hydroxypiperidin-1-yl)phenyl)-1H-indazol-5-yl)-2-(thiophen-3-yl)acetamide]
≤ 5 µM: IC50 (human TTK) | IC50 (human PLK4) | IC50 (Aurora B) | GI50 [1] | GI50 [2] | GI50 [3]

CC(C)(O)C1CCN(c2ccc(-c3n[nH]c4ccc(NC(=O)C(c5ccsc5)N5CCC5)cc34)cc2)CC1 (stereo not shown) [Example A201, 2-(azetidin-1-yl)-N-(3-(4-(4-(2-hydroxypropan-2-yl)piperidin-1-yl)phenyl)-1H-indazol-5-yl)-2-(thiophen-3-yl)acetamide]
≤ 5 µM: IC50 (human TTK) | IC50 (human PLK4) | IC50 (Aurora B) | GI50 [1] | GI50 [2] | GI50 [3]

O=CN1CCC(Oc2ccc(-c3n[nH]c4ccc(C(=O)N[C@@H](c5ccccn5)C5CC5)cc34)cc2)CC1 [Example A203, (R)—N-(cyclopropyl(pyridin-2-yl)methyl)-3-(4-((1-formylpiperidin-4-yl)oxy)phenyl)-1H-indazole-5-carboxamide]
≤ 5 µM: IC50 (human TTK) | IC50 (human PLK4) | IC50 (Aurora B) | GI50 [1] | GI50 [2] | GI50 [3]

O=CN1CCC(Oc2ccc(-c3n[nH]c4ccc(C(=O)N[C@H](c5ccccn5)C5CC5)cc34)cc2)CC1 [Example A204, (S)—N-(cyclopropyl(pyridin-2-yl)methyl)-3-(4-((1-formylpiperidin-4-yl)oxy)phenyl)-1H-indazole-5-carboxamide]
≤ 5 µM: IC50 (human TTK) | IC50 (human PLK4) | IC50 (Aurora B) | GI50 [1] | GI50 [2] | GI50 [3]

COc1cc(-c2n[nH]c3ccc(C(=O)NC(c4ccccc4)C4CC4)cc23)ccc1OC1CCN(C=O)CC1 (stereo not shown) [Example A205, N-(cyclopropyl(phenyl)methyl)-3-(4-((1-formylpiperidin-4-yl)oxy)-3-methoxyphenyl)-1H-indazole-5-carboxamide]
≤ 5 µM: IC50 (human TTK) | IC50 (human PLK4) | IC50 (Aurora B) | GI50 [1] | GI50 [2] | GI50 [3]
